From patent US20250270209A1 (INTERLINE THERAPEUTICS, INC., priority 2022, published 2025)

What was measured:
LRRK2 wild type enzyme = LRRK2 wild type enzyme (Homo sapiens, UniProt Q5S007); assay: Biochemical Assay: LRRK2 TR-FRET (LanthaScreen) kinase assay with LRRKtide substrate; conditions: LRRK2 Inhibition, Table 8
Outline: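 TR-FRET detection (Tb-labelled phospho-LRRKtide antibody, EDTA stop, 30 min) followed a 120 min, 23 °C reaction of 3 nM wild-type human LRRK2 with LRRKtide (400 nM) and ATP (25 μM) in Tris pH 8.0. Compounds: 11-point 3-fold series from 10 μM, 15 min enzyme preincubation.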

[1] = target: T1, wild type LRRK2 overexpressed in recombinant HEK-293T cells (Homo sapiens, UniProt Q5S007); assay: pS935 LRRK2 Cell Assay (HTRF, phospho-LRRK2 Ser935); type: cell-based; conditions: LRRK2 Inhibition, Table 8, 2 hours compound incubation
T1 construct: host or cells: HEK293T (transient transfection with pCMV-LRRK2 WT plasmid)
T1 sequence (Q5S007 whole entry): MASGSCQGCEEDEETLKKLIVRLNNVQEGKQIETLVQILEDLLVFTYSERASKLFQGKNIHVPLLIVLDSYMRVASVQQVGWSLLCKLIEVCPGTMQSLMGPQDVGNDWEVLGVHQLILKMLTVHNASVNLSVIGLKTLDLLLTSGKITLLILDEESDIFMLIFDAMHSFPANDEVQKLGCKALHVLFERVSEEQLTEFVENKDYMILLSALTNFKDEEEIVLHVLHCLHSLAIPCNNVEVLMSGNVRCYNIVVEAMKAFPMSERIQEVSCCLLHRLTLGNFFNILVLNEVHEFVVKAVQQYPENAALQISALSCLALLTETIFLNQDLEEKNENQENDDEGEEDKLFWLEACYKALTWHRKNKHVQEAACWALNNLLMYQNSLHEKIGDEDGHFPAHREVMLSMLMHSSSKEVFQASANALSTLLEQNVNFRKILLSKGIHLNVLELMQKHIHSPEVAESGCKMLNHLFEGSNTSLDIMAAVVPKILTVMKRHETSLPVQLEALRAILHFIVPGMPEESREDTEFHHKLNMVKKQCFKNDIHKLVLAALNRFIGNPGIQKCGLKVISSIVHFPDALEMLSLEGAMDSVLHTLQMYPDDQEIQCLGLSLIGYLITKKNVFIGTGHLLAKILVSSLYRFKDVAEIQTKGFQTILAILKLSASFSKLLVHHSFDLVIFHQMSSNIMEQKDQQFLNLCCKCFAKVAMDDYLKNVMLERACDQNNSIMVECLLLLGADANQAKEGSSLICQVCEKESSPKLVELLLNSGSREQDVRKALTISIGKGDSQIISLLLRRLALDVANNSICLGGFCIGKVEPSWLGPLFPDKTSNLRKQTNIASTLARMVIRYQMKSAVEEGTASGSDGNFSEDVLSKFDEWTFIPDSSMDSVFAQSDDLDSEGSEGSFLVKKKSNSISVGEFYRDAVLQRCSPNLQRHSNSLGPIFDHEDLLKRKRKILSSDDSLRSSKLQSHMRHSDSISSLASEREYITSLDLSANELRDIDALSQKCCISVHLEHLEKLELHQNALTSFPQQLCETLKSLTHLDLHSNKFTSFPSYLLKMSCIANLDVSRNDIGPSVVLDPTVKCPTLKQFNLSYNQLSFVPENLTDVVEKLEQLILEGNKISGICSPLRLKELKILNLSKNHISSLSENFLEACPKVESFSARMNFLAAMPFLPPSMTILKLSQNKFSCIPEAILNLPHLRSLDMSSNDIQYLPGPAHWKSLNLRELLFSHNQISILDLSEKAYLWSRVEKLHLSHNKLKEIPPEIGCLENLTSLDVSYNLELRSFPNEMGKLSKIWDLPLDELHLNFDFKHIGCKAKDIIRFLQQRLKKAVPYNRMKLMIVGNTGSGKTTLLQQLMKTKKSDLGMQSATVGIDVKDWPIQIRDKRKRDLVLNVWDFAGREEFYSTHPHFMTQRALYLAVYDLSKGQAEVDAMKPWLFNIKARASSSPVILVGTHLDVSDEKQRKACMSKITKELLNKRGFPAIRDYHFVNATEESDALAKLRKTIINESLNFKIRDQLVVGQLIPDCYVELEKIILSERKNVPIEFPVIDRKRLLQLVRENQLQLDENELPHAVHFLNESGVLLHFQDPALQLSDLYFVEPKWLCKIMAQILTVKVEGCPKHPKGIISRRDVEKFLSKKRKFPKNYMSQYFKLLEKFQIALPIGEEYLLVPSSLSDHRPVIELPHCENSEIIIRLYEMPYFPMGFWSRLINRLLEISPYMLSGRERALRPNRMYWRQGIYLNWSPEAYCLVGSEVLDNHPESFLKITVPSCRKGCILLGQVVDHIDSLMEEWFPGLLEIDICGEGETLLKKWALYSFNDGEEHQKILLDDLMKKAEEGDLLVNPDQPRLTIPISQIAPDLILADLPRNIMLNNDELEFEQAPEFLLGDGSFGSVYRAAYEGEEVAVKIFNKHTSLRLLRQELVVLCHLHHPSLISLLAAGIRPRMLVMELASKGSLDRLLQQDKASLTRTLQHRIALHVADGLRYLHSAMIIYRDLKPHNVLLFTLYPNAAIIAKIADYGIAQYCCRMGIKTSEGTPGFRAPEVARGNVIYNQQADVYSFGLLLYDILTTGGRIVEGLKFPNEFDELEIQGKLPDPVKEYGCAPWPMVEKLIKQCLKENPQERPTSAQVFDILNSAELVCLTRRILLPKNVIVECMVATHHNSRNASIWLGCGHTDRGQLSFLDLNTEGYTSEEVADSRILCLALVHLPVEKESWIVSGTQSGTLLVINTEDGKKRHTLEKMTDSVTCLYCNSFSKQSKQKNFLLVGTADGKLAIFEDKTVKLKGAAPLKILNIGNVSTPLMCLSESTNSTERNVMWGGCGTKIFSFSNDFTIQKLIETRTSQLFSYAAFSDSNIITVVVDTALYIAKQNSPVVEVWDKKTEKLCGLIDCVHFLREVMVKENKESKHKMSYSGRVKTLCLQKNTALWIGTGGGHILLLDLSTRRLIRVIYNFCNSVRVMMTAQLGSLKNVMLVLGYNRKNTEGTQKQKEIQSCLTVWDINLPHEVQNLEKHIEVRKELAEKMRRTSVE
Outline: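 Phospho-Ser935 LRRK2 measured by two-antibody HTRF (Eu-cryptate donor, d2 acceptor; 665/615 nm ratio) after overnight detection at 23° C. Before lysis, transiently LRRK2-transfected HEK-293T cells were exposed 2 h at 37° C to a 9-point, 3-fold series from 10 μM, with DMSO at 0.2%.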

Sequence of LRRK2 wild type enzyme (Q5S007 whole entry): as above

Row | Structure (SMILES) | IC50 (LRRK2 wild type enzyme) [nM] | IC50 [1] [nM]
1 | C[C@@H]1C[C@H](n2c(CC(=O)Nc3cccnc3C#N)nc3cnc4ccc(C#N)cc4c32)CCO1 [Compound 272, N-(2-cyano-3-pyridyl){3-[(2R,4R)-2-methyltetrahydro-2H-pyran-4-yl]-12-cyano-3,5,8-triazatricyclo[7.4.0.0^2,6]trideca-1,4,6,8,10,12-hexaen-4-yl}acetamide] | 0.549 | 12.5
2 | CC(C)Oc1ccc(NC(=O)Cc2nc3cnc4ccc(C#N)cc4c3n2[C@@H]2CCO[C@H](C)C2)cn1 [Compound 273, N-(6-isopropoxy-3-pyridyl){3-[(2R,4R)-2-methyltetrahydro-2H-pyran-4-yl]-12-cyano-3,5,8-triazatricyclo[7.4.0.0^2,6]trideca-1,4,6,8,10,12-hexaen-4-yl}acetamide] | 0.478 | 5.59
3 | CCOc1ccc(NC(=O)Cc2nc3cnc4ccc(C#N)cc4c3n2[C@@H]2CCO[C@H](C)C2)cn1 [Compound 274, N-(6-ethoxy-3-pyridyl){3-[(2R,4R)-2-methyltetrahydro-2H-pyran-4-yl]-12-cyano-3,5,8-triazatricyclo[7.4.0.0^2,6]trideca-1,4,6,8,10,12-hexaen-4-yl}acetamide] | 0.445 | 7.97
4 | CCOc1ncccc1NC(=O)Cc1nc2cnc3ccc(C#N)cc3c2n1[C@@H]1CCO[C@H](C)C1 [Compound 275, N-(2-ethoxy-3-pyridyl){3-[(2R,4R)-2-methyltetrahydro-2H-pyran-4-yl]-12-cyano-3,5,8-triazatricyclo[7.4.0.0^2,6]trideca-1,4,6,8,10,12-hexaen-4-yl}acetamide] | 0.478 | 2.41
5 | COCC1(NC(=O)Cc2nc3cnc4ccc(C#N)cc4c3n2[C@@H]2CCO[C@H](C)C2)CC1 [Compound 276] | 0.922 | 86
6 | C[C@@H]1C[C@H](n2c(CC(=O)N[C@@H]3C[C@H]3F)nc3cnc4ccc(C#N)cc4c32)CCO1 [Compound 277, N-[(1R,2R)-2-fluorocyclopropyl]{3-[(2R,4R)-2-methyltetrahydro-2H-pyran-4-yl]-12-cyano-3,5,8-triazatricyclo[7.4.0.0^2,6]trideca-1(13),2(6),4,7,9,11-hexaen-4-yl}acetamide] | 0.828 | 52.2
7 | COc1ncc(NC(=O)Cc2nc3cnc4ccc(C#N)cc4c3n2[C@@H]2CCO[C@H](C)C2)c(C2CC2)n1 [Compound 278, N-(4-cyclopropyl-2-methoxy-5-pyrimidinyl){3-[(2R,4R)-2-methyltetrahydro-2H-pyran-4-yl]-12-cyano-3,5,8-triazatricyclo[7.4.0.0^2,6]trideca-1,4,6,8,10,12-hexaen-4-yl}acetamide] | 0.418 | 2
8 | Cc1noc(CNC(=O)Cc2nc3cnc4ccc(C#N)cc4c3n2[C@@H]2CCO[C@H](C)C2)n1 [Compound 279, N-[(3-methyl-1,2,4-oxadiazol-5-yl)methyl]{3-[(2R,4R)-2-methyltetrahydro-2H-pyran-4-yl]-12-cyano-3,5,8-triazatricyclo[7.4.0.0^2,6]trideca-1(9),2(6),4,7,10,12-hexaen-4-yl}acetamide] | 0.776 | 86.3
9 | C[C@@H]1C[C@H](n2c(CC(=O)Nc3ccn(C)c(=O)c3)nc3cnc4ccc(C#N)cc4c32)CCO1 [Compound 280, N-(1-methyl-2-oxo-1,2-dihydro-4-pyridyl){3-[(2R,4R)-2-methyltetrahydro-2H-pyran-4-yl]-12-cyano-3,5,8-triazatricyclo[7.4.0.0^2,6]trideca-1,4,6,8,10,12-hexaen-4-yl}acetamide] | 0.373 | 495
10 | C[C@@H]1C[C@H](n2c(CC(=O)Nc3ccc(=O)n(C)c3)nc3cnc4ccc(C#N)cc4c32)CCO1 [Compound 281, N-(1-methyl-6-oxo-1,6-dihydro-3-pyridyl){3-[(2R,4R)-2-methyltetrahydro-2H-pyran-4-yl]-12-cyano-3,5,8-triazatricyclo[7.4.0.0^2,6]trideca-1,4,6,8,10,12-hexaen-4-yl}acetamide] | 0.394 | 336
11 | C[C@@H]1C[C@H](n2c(CC(=O)NC3(C#N)CC3)nc3cnc4ccc(C#N)cc4c32)CCO1 [Compound 282, N-1-cyanocyclopropyl{3-[(2R,4R)-2-methyltetrahydro-2H-pyran-4-yl]-12-cyano-3,5,8-triazatricyclo[7.4.0.0^2,6]trideca-1,4,6,8,10,12-hexaen-4-yl}acetamide] | 0.619 | 188
12 | C[C@@H]1C[C@H](n2c(CC(=O)Nc3cccnc3CO)nc3cnc4ccc(C#N)cc4c32)CCO1 [Compound 283, N-[2-(hydroxymethyl)-3-pyridyl]{3-[(2R,4R)-2-methyltetrahydro-2H-pyran-4-yl]-12-cyano-3,5,8-triazatricyclo[7.4.0.0^2,6]trideca-1,4,6,8,10,12-hexaen-4-yl}acetamide] | 0.572 | 27.3
13 | C[C@@H]1C[C@H](n2c(CC(=O)Nc3cncc(C#N)c3)nc3cnc4ccc(C#N)cc4c32)CCO1 [Compound 284, N-(5-cyano-3-pyridyl){3-[(2R,4R)-2-methyltetrahydro-2H-pyran-4-yl]-12-cyano-3,5,8-triazatricyclo[7.4.0.0^2,6]trideca-1,4,6,8,10,12-hexaen-4-yl}acetamide] | 0.538 | 20
14 | C[C@@H]1C[C@H](n2c(CC(=O)Nc3cccnc3C(F)(F)F)nc3cnc4ccc(C#N)cc4c32)CCO1 [Compound 285, N-[2-(trifluoromethyl)-3-pyridyl]{3-[(2R,4R)-2-methyltetrahydro-2H-pyran-4-yl]-12-cyano-3,5,8-triazatricyclo[7.4.0.0^2,6]trideca-1,4,6,8,10,12-hexaen-4-yl}acetamide] | 0.68 | 18.2
15 | C[C@@H]1C[C@H](n2c(CC(=O)NC3(CO)CC3)nc3cnc4ccc(C#N)cc4c32)CCO1 [Compound 286, N-1-(hydroxymethyl)cyclopropyl{3-[(2R,4R)-2-methyltetrahydro-2H-pyran-4-yl]-12-cyano-3,5,8-triazatricyclo[7.4.0.0^2,6]trideca-1,4,6,8,10,12-hexaen-4-yl}acetamide] | 1.45 | 907
16 | C[C@@H]1C[C@H](n2c(CC(=O)NC3(C(F)(F)F)CC3)nc3cnc4ccc(C#N)cc4c32)CCO1 [Compound 287, N-1-(trifluoromethyl)cyclopropyl{3-[(2R,4R)-2-methyltetrahydro-2H-pyran-4-yl]-12-cyano-3,5,8-triazatricyclo[7.4.0.0^2,6]trideca-1,4,6,8,10,12-hexaen-4-yl}acetamide] | 1.61 | 118
17 | C[C@@H]1C[C@H](n2c(CC(=O)NC3CC3(F)F)nc3cnc4ccc(C#N)cc4c32)CCO1 (stereo partly drawn) [Compound 288, N-2,2-difluorocyclopropyl{3-[(2R,4R)-2-methyltetrahydro-2H-pyran-4-yl]-12-cyano-3,5,8-triazatricyclo[7.4.0.0^2,6]trideca-1,4,6,8,10,12-hexaen-4-yl}acetamide] | 0.642 | 39
18 | C[C@@H]1C[C@H](n2c(CC(=O)N[C@H]3C[C@H]3F)nc3cnc4ccc(C#N)cc4c32)CCO1 [Compound 289, N-[(1S,2R)-2-fluorocyclopropyl]{3-[(2R,4R)-2-methyltetrahydro-2H-pyran-4-yl]-12-cyano-3,5,8-triazatricyclo[7.4.0.0^2,6]trideca-1,4,6,8,10,12-hexaen-4-yl}acetamide] | 0.692 | 54.5
19 | C[C@@H]1C[C@H](n2c(CC(=O)N[C@@H]3C[C@@H]3F)nc3cnc4ccc(C#N)cc4c32)CCO1 [Compound 290, N-[(1R,2S)-2-fluorocyclopropyl]{3-[(2R,4R)-2-methyltetrahydro-2H-pyran-4-yl]-12-cyano-3,5,8-triazatricyclo[7.4.0.0^2,6]trideca-1,4,6,8,10,12-hexaen-4-yl}acetamide] | 0.567 | 33.4
20 | COc1ncc(NC(=O)Cc2nc3cnc4ccc(C#N)cc4c3n2[C@@H]2CCO[C@H](C)C2)cn1 [Compound 291, N-(2-methoxy-5-pyrimidinyl){3-[(2R,4R)-2-methyltetrahydro-2H-pyran-4-yl]-12-cyano-3,5,8-triazatricyclo[7.4.0.0^2,6]trideca-1,4,6,8,10,12-hexaen-4-yl}acetamide] | 0.527 | 18
21 | Cc1ccncc1NC(=O)Cc1nc2cnc3ccc(C#N)cc3c2n1[C@@H]1CCO[C@H](C)C1 [Compound 292, N-(4-methyl-3-pyridyl){3-[(2R,4R)-2-methyltetrahydro-2H-pyran-4-yl]-12-cyano-3,5,8-triazatricyclo[7.4.0.0^2,6]trideca-1,4,6,8,10,12-hexaen-4-yl}acetamide] | 0.473 | 8.23
22 | C[C@@H]1C[C@H](n2c(CC(=O)Nc3ccc(OC(F)F)nc3)nc3cnc4ccc(C#N)cc4c32)CCO1 [Compound 293, N-(6-difluoromethoxy-3-pyridyl){3-[(2R,4R)-2-methyltetrahydro-2H-pyran-4-yl]-12-cyano-3,5,8-triazatricyclo[7.4.0.0^2,6]trideca-1,4,6,8,10,12-hexaen-4-yl}acetamide] | 0.514 | 9.81
23 | C[C@@H]1C[C@H](n2c(CC(=O)NC3(CF)CC3)nc3cnc4ccc(C#N)cc4c32)CCO1 [Compound 294, N-1-(fluoromethyl)cyclopropyl{3-[(2R,4R)-2-methyltetrahydro-2H-pyran-4-yl]-12-cyano-3,5,8-triazatricyclo[7.4.0.0^2,6]trideca-1,4,6,8,10,12-hexaen-4-yl}acetamide] | 1.48 | 132
